Reference: US20240206465A1, “ACTIVE POLYMERIC FILMS AND POLYMERIC COMPOSITIONS” (Yissum Research Development Company of the Hebrew …, priority 2021, published 2024)
Square brackets hold non-standard residues; d marks the D form. Ends that are not written are not given here. Phe(4-F) = N[C@@H](Cc1ccc(F)cc1)C(=O)O; Dopa = N[C@@H](Cc1ccc(O)c(O)c1)C(=O)O

What was measured:
[1] = Thermogravimetric analysis (thermal stability); format: physicochemical; settings: at 160° C.; contained the absorbed water; FIG. 4A
Description: Thermogravimetric analysis (TGA). TGA measurements were performed using the TGA Q5000 system (TA instruments, USA) at a heating rate of 10° C./min under nitrogen atmosphere, starting from room temperature to 800° C. The results were analyzed using Universal Analysis 200 version 4.5 A build 4.5.0.5 software.

T4 phage = settings: peptide assemblies deposited on the glass surface; cited from earlier work
canine coronavirus = settings: peptide assemblies deposited on the glass surface; cited from earlier work

Substance: [Dopa]-[Phe(4-F)]-[Phe(4-F)]-OMe
- weight loss of the peptide (TGA) [1]: < 3 wt %
- antiviral activity against T4 phage (T4 phage): acted against
- antiviral activity against canine coronavirus (canine coronavirus): acted against
